From patent US12084473B2, “β-D-2′-deoxy-2′-α-fluoro-2′-β-C-substituted-2-modified-N6-substituted purine nucleotides for HCV treatment” (Atea Pharmaceuticals, Inc., priority 2015, dated 2024)
pEC50, pIC50: −log10 of the molar value. Like-named read-outs stand apart in the source and are kept apart here.

What was measured:
[1] = biological target: HCV genotype 1b luciferase reporter replicon; assay: microbe, parasite or virus in culture; format: cell-based; conditions: read-out: EC50 in a replicon assay
Protocol: (§1) The plates were cultured for 24 hours prior to the addition of compounds. Six serial one half log dilutions of the test articles (high test concentration of 100.0 μM or high test concentration of 1.0 μM) and human interferon-alpha2b (high test 10.0 U/ml) were prepared in cell culture medium and added to the cultured cells in triplicate wells for each dilution. Six wells in the test plates received medium alone as an untreated control. Following 72 hours of culture in the presence of compound, one of the plates was used for the determination of cytotoxicity by staining with XTT and the other for antiviral efficacy by determination of luciferase reporter activity. Cytotoxicity and efficacy data were collected and imported into a customized Excel workbook for determination of the TC50 and EC50 values. […] The y-axis is the percent of virus control and the x-axis is the concentration of drug in μM. […] The y-axis is the percent of virus control and the x-axis is the concentration of drug in M.

Huh-7 luc/neo ET cells = assay: Cytotoxicity by XTT staining in replicon cells
Protocol: as §1

[2] = system: HCV Genotype 1a, NS5B Mutation L159F and S282T; assay: microbe, parasite or virus in culture; format: cell-based; conditions: genotype 1a, NS5B L159F and S282T
Protocol: (§2) Various patient-derived HCV genotypes containing wild-type and resistance-associated variants were used to determine their relative replication sensitivity to test compounds. Replicon resistance test vectors (RTVs) containing the NS5B genomic regions were prepared using viral RNA isolated from plasma of HCV patients. Each NS5B region was amplified by reverse-transcription polymerase chain reaction and cloned into an HCV replicon RTV which was then transferred by electroporation into Huh-7 cells.

[3] = system: HCV Genotype 1a, NS5B Mutation L159F; assay: microbe, parasite or virus in culture; format: cell-based; conditions: genotype 1a, NS5B L159F
Protocol: as §2

[4] = system: HCV Genotype 1a, NS5B Mutation none; assay: microbe, parasite or virus in culture; format: cell-based; conditions: genotype 1a, no NS5B mutation
Protocol: as §2

[5] = system: HCV Genotype 1b, NS5B Mutation C316N; assay: microbe, parasite or virus in culture; format: cell-based; conditions: genotype 1b, NS5B C316N
Protocol: as §2

[6] = system: HCV Genotype 1b, NS5B Mutation none; assay: microbe, parasite or virus in culture; format: cell-based; conditions: genotype 1b, no NS5B mutation
Protocol: as §2

[7] = system: HCV Genotype 2a, NS5B Mutation none; assay: microbe, parasite or virus in culture; format: cell-based; conditions: genotype 2a, no NS5B mutation
Protocol: as §2

[8] = system: HCV Genotype 2b, NS5B Mutation none; assay: microbe, parasite or virus in culture; format: cell-based; conditions: genotype 2b, no NS5B mutation
Protocol: as §2

[9] = system: HCV Genotype 3a-1, NS5B Mutation none; assay: microbe, parasite or virus in culture; format: cell-based; conditions: genotype 3a-1, no NS5B mutation
Protocol: as §2

[10] = system: HCV Genotype 3a-2, NS5B Mutation none; assay: microbe, parasite or virus in culture; format: cell-based; conditions: genotype 3a-2, no NS5B mutation
Protocol: as §2

[11] = system: HCV Genotype 4a, NS5B Mutation none; assay: microbe, parasite or virus in culture; format: cell-based; conditions: genotype 4a, no NS5B mutation
Protocol: as §2

[12] = system: HCV Genotype 4d, NS5B Mutation none; assay: microbe, parasite or virus in culture; format: cell-based; conditions: genotype 4d, no NS5B mutation
Protocol: as §2

HCV S282T replicon = assay: microbe, parasite or virus in culture; format: cell-based; conditions: NS5B Mutation S282T, transient assay, 96-hr
Protocol: (§3) A transient transfection assay was performed to determine the sensitivity of the […] of HCV to test compounds. Huh-7 cells were electroporated in the presence of RNA transcribed from wild type or S282T HCV replicon plasmids from the T7 promoter. The transfected cells were seeded in to 96-well plates at 7.5×10^3 cells per well in Dulbecco's Modified Eagle's medium. After 24 hr of incubation, medium was removed and replaced with fresh medium containing no or various concentrations of test compounds. Following an additional 96-hr incubation, the anti-HCV activity was measured by luciferase endpoint with Britelite™ Plus luminescence reporter gene kit (Perkin Elmer, Shelton, CT). Duplicate plates were treated and incubated in parallel for assessment of cellular toxicity by staining with the tetrazolium dye XTT.

HCV wild type replicon = assay: microbe, parasite or virus in culture; format: cell-based; conditions: NS5B Mutation None, transient assay, 96-hr
Protocol: as §3

[13] = system: micro-patterned human hepatocyte co-cultures; assay: Human Hepatocyte Co-Cultures (HepatoPac): cytotoxicity and hepatocyte health; format: cell-based
Protocol: Cytotoxicity and hepatocyte health were assessed in triplicate by measuring ALT leakage, urea production, albumin secretion and cellular ATP contents in micro-patterned human hepatocyte co-cultures (HepatoPac®, Hepregen Corporation) prepared by seeding cryopreserved human hepatocytes (single donor) and 3T3 J2 mouse fibroblasts in microtiter plates according to procedures established by Hepregen. Culture media was replaced with fresh media containing TA, test article, (0, 1, 10 or 30 μM) every 2 or 3 days through day 16. […] Cellular ATP levels were measured on days 9 and 21. ATP signals in stromal-only control cultures (murine 3T3 fibroblasts) were subtracted from those of human HepatoPac co-cultures to obtain hepatocyte-specific effects. See, Table 4, 5 and 6 below.

sofosbuvir [reference compound]
pEC50 [1]: 7.28
TC50 (Huh-7 luc/neo ET cells): greater than one hundred
IC95 Value [2]: 16.9509 µM
pIC50 ([2]; read-out: IC50 Value): 5.79
IC95 Value [3]: 1.0675 µM
pIC50 ([3]; read-out: IC50 Value): 6.94
IC95 Value [4]: 0.5077 µM
pIC50 ([4]; read-out: IC50 Value): 7.20
IC95 Value [5]: 0.4728 µM
pIC50 ([5]; read-out: IC50 Value): 7.13
Fold Change in IC50 from Sofosbuvir [6]: 1.0
IC95 Value [6]: 0.6422 µM
pIC50 ([6]; read-out: IC50 Value): 7.07
IC95 Value [7]: 0.1951 µM
pIC50 ([7]; read-out: IC50 Value): 7.65
IC95 Value [8]: 0.2953 µM
pIC50 ([8]; read-out: IC50 Value): 7.35
IC95 Value [9]: 0.6898 µM
pIC50 ([9]; read-out: IC50 Value): 6.90
IC95 Value [10]: 0.8081 µM
pIC50 ([10]; read-out: IC50 Value): 6.91
IC95 Value [11]: 0.6814 µM
pIC50 ([11]; read-out: IC50 Value): 7.13
IC95 Value [12]: 1.0197 µM
pIC50 ([12]; read-out: IC50 Value): 7.03
IC95 Value (HCV S282T replicon): >1 µM
pIC50 (HCV S282T replicon; read-out: IC50 Value): 6.56
IC95 Value (HCV wild type replicon): 0.218 µM
pIC50 (HCV wild type replicon; read-out: IC50 Value): 7.44
pIC50 ([13]; Day 9, read-out: Effect on Cellular ATP Concentrations, 50% Inhibitory Concentration (IC50)): 5.07
pIC50 ([13]; Day 21, read-out: Effect on Cellular ATP Concentrations, 50% Inhibitory Concentration (IC50)): 5.64
pIC50 ([13]; Table 5, Day 2, read-out: Effect on Albumin Secretion, 50% Inhibitory Concentration (IC50)): < 4.52
pIC50 ([13]; Table 5, Day 5, read-out: Effect on Albumin Secretion, 50% Inhibitory Concentration (IC50)): 4.71
pIC50 ([13]; Table 5, Day 7, read-out: Effect on Albumin Secretion, 50% Inhibitory Concentration (IC50)): 4.96
pIC50 ([13]; Table 5, Day 9, read-out: Effect on Albumin Secretion, 50% Inhibitory Concentration (IC50)): 5.03
pIC50 ([13]; Table 6, Day 2, read-out: Effect on Albumin Secretion, 50% Inhibitory Concentration (IC50)): < 4.52
pIC50 ([13]; Table 6, Day 5, read-out: Effect on Albumin Secretion, 50% Inhibitory Concentration (IC50)): < 4.52
pIC50 ([13]; Table 6, Day 7, read-out: Effect on Albumin Secretion, 50% Inhibitory Concentration (IC50)): < 4.52
pIC50 ([13]; Table 6, Day 9, read-out: Effect on Albumin Secretion, 50% Inhibitory Concentration (IC50)): 4.92
pIC50 ([13]; Table 6, Day 12, read-out: Effect on Albumin Secretion, 50% Inhibitory Concentration (IC50)): 5.17
pIC50 ([13]; Table 6, Day 16, read-out: Effect on Albumin Secretion, 50% Inhibitory Concentration (IC50)): 5.57
pIC50 ([13]; Table 6, Day 21, read-out: Effect on Albumin Secretion, 50% Inhibitory Concentration (IC50)): 5.64
cytotoxicity to human co-cultured hepatocytes (in words) ([13]; text b588): more cytotoxicity than AT-511
